From patent US6143492A, “Optical molecular sensors for cytochrome P450 activity” (Aurora Biosciences Corporation, priority 1999, dated 2000)

Experiments:
CYP 2C9 = CYP 2C9 (Homo sapiens, UniProt P11712); assay: Kinetics of fluorogenic substrates with CYP 2C9; type: biochemical
CYP 2B6 = target: T1, CYP 2B6 (Homo sapiens, UniProt P20813); assay: Kinetics of fluorogenic substrates with CYP 2B6; conditions: for v (1.25 uM), turnover rate at 1.25 μM: CYP 2B6, substrate 1.25 uM; for v (10 uM), turnover rate at 10 μM: CYP 2B6, substrate 10 uM
T1 sequence (P20813 1-491): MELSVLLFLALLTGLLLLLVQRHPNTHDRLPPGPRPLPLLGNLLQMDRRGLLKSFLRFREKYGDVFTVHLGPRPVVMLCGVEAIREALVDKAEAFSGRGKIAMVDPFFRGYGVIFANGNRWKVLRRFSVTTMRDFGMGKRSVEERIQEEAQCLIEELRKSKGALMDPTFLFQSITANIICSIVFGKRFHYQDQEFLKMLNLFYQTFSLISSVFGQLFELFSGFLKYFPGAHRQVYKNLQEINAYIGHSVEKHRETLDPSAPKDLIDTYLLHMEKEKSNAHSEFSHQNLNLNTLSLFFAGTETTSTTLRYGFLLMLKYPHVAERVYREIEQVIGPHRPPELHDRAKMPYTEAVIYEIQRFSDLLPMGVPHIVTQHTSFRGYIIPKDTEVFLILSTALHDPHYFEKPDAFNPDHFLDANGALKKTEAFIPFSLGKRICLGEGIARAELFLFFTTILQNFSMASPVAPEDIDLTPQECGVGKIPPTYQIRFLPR

CYP 2D6 = CYP 2D6 (Homo sapiens, UniProt P10635); assay: biochemical
Method: CYP 2D6 was incubated with 10 μM concentrations of various known inhibitors and drug substrates and residual CYP 2D6 activity assayed with the fluorogenic substrate MOBFC. The assay was performed in a 96-well plate at room temp and at a volume of 100 μl/well. 4×enzyme buffer was prepared and 25 μl was added to each well on the plate, for final assay concentrations of 3.3 mM glucose-6-phosphate, 0.4 units/ml glucose-6-phosphate dehydrogenase and 10 mM MgCl2 in 100 mM K+ phosphate, pH 8.0. […] Six consecutive 1:3 dilutions were made and 50 μl of each was added to appropriate wells on the assay plate. The CYP2D6 was diluted to a solution of 2 pmol/10 μl in 100 mM K+ phosphate and 10 μl was added to each well. 20 μl of buffer was added to each well containing standard. The drug inhibitors were allowed to pre-incubated with the CYP 2D6 enzyme for 1 hr prior to the addition of the MOBFC substrate. […] Hydroxy-trifluoro-methylcoumarin was diluted to 100 μM in K+ phosphate buffer, and seven consecutive 1:2 dilutions were made. 10 μl of each dilution was added to the appropriate wells on the plate containing 90 μl of 100 mM K+ phosphate, pH 8.0.

CYP 3A4 [1] = target: T2, CYP 3A4 (Homo sapiens, UniProt P08684); assay: Kinetics of fluorogenic substrates with CYP 3A4; type: biochemical
T2 construct: NADPH regenerating system
T2 sequence (P08684 whole entry): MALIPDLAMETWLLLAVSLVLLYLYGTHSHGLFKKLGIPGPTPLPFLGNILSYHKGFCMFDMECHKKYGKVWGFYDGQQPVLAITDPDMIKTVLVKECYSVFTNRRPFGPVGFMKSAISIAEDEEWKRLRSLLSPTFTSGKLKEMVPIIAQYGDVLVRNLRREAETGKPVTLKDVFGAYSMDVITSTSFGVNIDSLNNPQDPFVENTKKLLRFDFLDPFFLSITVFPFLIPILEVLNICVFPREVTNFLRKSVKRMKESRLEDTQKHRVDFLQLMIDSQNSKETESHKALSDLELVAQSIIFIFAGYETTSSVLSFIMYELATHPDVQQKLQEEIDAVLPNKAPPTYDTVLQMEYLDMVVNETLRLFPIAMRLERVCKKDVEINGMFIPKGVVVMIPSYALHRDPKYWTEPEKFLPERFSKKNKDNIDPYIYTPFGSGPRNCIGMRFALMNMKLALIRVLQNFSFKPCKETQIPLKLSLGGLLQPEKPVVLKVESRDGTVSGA
Text: Whichever of the four abstractable hydrogen atoms (designated H^1 and H^2 in this representation of BOMR) is removed in the initial reaction step, with reference to Reaction Scheme 1 of FIG. 1, the hydroxylation product will spontaneously decompose to the free resorufin dye. In addition, the benzyloxy group, attached to the carbon carrying the two hydrogens designated H^2, contributes an inductive electronic effect on that carbon, which can stabilize the radical formed during abstraction of one of the H^2 hydrogens by a cytochrome P450.
Optimization of assay conditions was, and is preferably, accomplished through statistically validated Design of Experiments methodologies, using the commercial software package "Design-Expert®" produced by Stat-Ease® Inc. The data shown in FIGS. 4 and 5 were obtained with initial optimization.
For further understanding these terms in the context of this invention, attention is directed to FIG. 4 and the analysis of FIG. 4.

CYP 3A4 [2] = target: T2, CYP 3A4; assay: Rate of hydroxylation of BOM-09B by CYP 3A4; type: biochemical
Method: The racemic compound mixture (designated BOM-09B) was tested for activity with cytochrome P450 isozymes. […] The CYP 3A4 assay was performed in a 96-well plate at 37° C. in a volume of 100 μL/well. BOM-09B was diluted from a stock solution of 1 mM in acetonitrile to a 4×concentration of 80 μM in 100 mM K+ phosphate buffer of which 25 μl was added to the appropriate wells. […] The cytochrome P450 isozyme CYP3A4 was diluted to give a 2 pmol enzyme per well. Enzymic conversion of the substrate to products was allowed to proceed for 1 hour with fluorescence reads taken every 4 minutes on a fluorescence microtiter plate reader. The solution was illuminated with an 395/25 nm excitation filter and fluorescence emission was detected through a 460/40 nm the emission filter.

[3] = substrate: COc1ccc2c(C(F)(F)F)cc(=O)oc2c1; assay: Kinetics of fluorogenic substrates with CYP 2D6; type: biochemical, human; conditions: other: CYP 2D6
[4] = substrate: COCOc1ccc2c(C(F)(F)F)cc(=O)oc2c1; assay: Kinetics of fluorogenic substrates with CYP 2C9; type: biochemical, human; conditions: other: CYP 2C9
[5] = substrate: COc1ccc2c(C(F)(F)F)cc(=O)oc2c1; assay: Kinetics of fluorogenic substrates with CYP 2C9; type: biochemical, human; conditions: other: CYP 2C9
[6] = substrate: N#Cc1cc2ccc(OCOCc3ccccc3)cc2oc1=O; assay: Kinetics of fluorogenic substrates with CYP 2C9; type: biochemical, human; conditions: other: CYP 2C9

Molecule: COCOc1ccc2c(C(F)(F)F)cc(=O)oc2c1 [MOMFC, 7-methyloxymethyloxy-4-trifluoromethylcoumarin]
- conversion to the same fluorescent product vs the most closely structurally-related substrate (CYP 2C9; CYP 2C9): more efficient conversion
- kcat (CYP 2C9; CYP 2C9): 0.0017 s⁻¹
- type of kinetics (CYP 2C9; CYP 2C9): Michaelis-
- v (1.25 uM), turnover rate at 1.25 μM (CYP 2C9; CYP 2C9, substrate 1.25 uM): 0.00 min⁻¹
- v (10 uM), turnover rate at 10 μM (CYP 2C9; CYP 2C9, substrate 10 uM): 0.07 min⁻¹
- conversion to the same fluorescent product vs the most closely structurally-related substrate (CYP 2B6; CYP 2B6): less efficiently converted
- type of kinetics (CYP 2B6; CYP 2B6): not Michaelis-
- v (1.25 uM), turnover rate at 1.25 μM (CYP 2B6): 0.54 min⁻¹
- v (10 uM), turnover rate at 10 μM (CYP 2B6): 0.71 min⁻¹

Molecule: CCC1C2CC3C4N(C)c5ccccc5C45CC(C2C5O)N3C1O (centres unmarked) [Amjaline]
- Ki (CYP 2D6): > 30 µM

Molecule: O=c1ccc2nc3ccc(OCc4ccccc4)cc3oc-2c1 [BR, Benzylresorufin, reference compound]
- kcat (CYP 3A4 [1]; CYP 3A4): 0.0017 s⁻¹
- kcat/Km (CYP 3A4 [1]; CYP 3A4): 377 M⁻¹ s⁻¹
- type of kinetics (CYP 3A4 [1]; CYP 3A4): Michaelis-
- turnover rate (kcat) (CYP 3A4 [1]; CYP 3A4, FIG. 4 data): 0.00167 s⁻¹
- v (1.25 uM), turnover rate at 1.25 μM (CYP 3A4 [1]; CYP 3A4, substrate 1.25 uM): 0.02 min⁻¹
- v (10 uM), turnover rate at 10 μM (CYP 3A4 [1]; CYP 3A4, substrate 10 uM): 0.08 min⁻¹
- type of kinetics (CYP 2B6; CYP 2B6): not Michaelis-
- v (1.25 uM), turnover rate at 1.25 μM (CYP 2B6): 0.42 min⁻¹
- v (10 uM), turnover rate at 10 μM (CYP 2B6): 0.42 min⁻¹

Molecule: CC(C)NC[C@H](O)COc1cccc2ccccc12 (racemic) [Propanolol]
- Ki (CYP 2D6; human, cyp 2d6, pH 8): > 30 µM

Molecule: NC1CCCCC1NC(=O)c1cc2ccc(OCOCc3ccccc3)cc2oc1=O (racemic) [BOM-09B]
- activity with the CYP 3A4 isozyme (CYP 3A4 [2]): particularly high activity
- conversion rate (CYP 3A4 [2]; 37° C., pH 8.0, 1 hour): 0.75 pmol substrate/pmol enzyme·min
- rate of conversion compared with BOMCC (CYP 3A4 [2]; identical conditions): half that of BOMCC

B1: CYP 2D6 (Homo sapiens) (protein)
chain: MGLEALVPLAVIVAIFLLLVDLMHRRQRWAARYPPGPLPLPGLGNLLHVDFQNTPYCFDQLRRRFGDVFSLQLAWTPVVVLNGLAAVREALVTHGEDTADRPPVPITQILGFGPRSQGVFLARYGPAWREQRRFSVSTLRNLGLGKKSLEQWVTEEAACLCAAFANHSGRPFRPNGLLDKAVSNVIASLTCGRRFEYDDPRFLRLLDLAQEGLKEESGFLREVLNAVPVLLHIPALAGKVLRFQKAFLTQLDELLTEHRMTWDPAQPPRDLTEAFLAEMEKAKGNPESSFNDENLRIVVADLFSAGMVTTSTTLAWGLLLMILHPDVQRRVQQEIDDVIGQVRRPEMGDQAHMPYTTAVIHEVQRFGDIVPLGVTHMTSRDIEVQGFRIPKGTTLITNLSSVLKDEAVWEKPFRFHPEHFLDAQGHFVKPEAFLPFSAGRRACLGEPLARMELFLFFTSLLQHFSFSVPTGQPRPSHHGVFAFLVSPSPYELCAVPR
- Km [3]: 10.0 µM
- kcat/Km [3]: 417 M⁻¹ s⁻¹

B2: CYP 2C9 (Homo sapiens) (protein)
chain: MDSLVVLVLCLSCLLLLSLWRQSSGRGKLPPGPTPLPVIGNILQIGIKDISKSLTNLSKVYGPVFTLYFGLKPIVVLHGYEAVKEALIDLGEEFSGRGIFPLAERANRGFGIVFSNGKKWKEIRRFSLMTLRNFGMGKRSIEDRVQEEARCLVEELRKTKASPCDPTFILGCAPCNVICSIIFHKRFDYKDQQFLNLMEKLNENIKILSSPWIQICNNFSPIIDYFPGTHNKLLKNVAFMKSYILEKVKEHQESMDMNNPQDFIDCFLMKMEKEKHNQPSEFTIESLENTAVDLFGAGTETTSTTLRYALLLLLKHPEVTAKVQEEIERVIGRNRSPCMQDRSHMPYTDAVVHEVQRYIDLLPTSLPHAVTCDIKFRNYLIPKGTTILISLTSVLHDNKEFPNPEMFDPHHFLDEGGNFKKSKYFMPFSAGKRICVGEALAGMELFLFLTSILQNFNLKSLVDPKNLDTTPVVNGFASVPPFYQLCFIPV
- Km [4]: 14.9 µM
- kcat/Km [4]: 157 M⁻¹ s⁻¹
- Km [5]: 103.0 µM
- kcat [5]: 0.0067 s⁻¹
- kcat/Km [5]: 70 M⁻¹ s⁻¹
- Km [6]: 3.0 µM
- kcat/Km [6]: 814 M⁻¹ s⁻¹
